A short description of data set [1]: Compound stability in human liver microsomes. It is filed as in vitro ADME. Particulars: for half-life at 5 μM: human liver microsomes 0.5 mg protein/mL, compound 5 μM, NADPH 1.0 mM, 37° C.; for CLint scaled at 5 μM: human liver microsomes, in vivo CLint extrapolated.
Data set [2] in a line: Compound stability in rat liver microsomes. Particulars: pH 7.4; for half-life at 5 μM: rat liver microsomes 0.5 mg protein/mL, compound 5 μM, NADPH 1.0 mM, 37° C.; for CLint scaled at 5 μM: rat liver microsomes, in vivo CLint extrapolated. The class given is in vitro ADME.
Data set [3] is described as follows: Pharmacokinetics after intravenous and oral administration in rats. The class given is in vivo, rat. Particulars: for clearance (CL) / AUC(0-t) / half-life / Vd: iv dosing, dose 1 mg/kg; for bioavailability / AUC(0-t) / half-life / Vd: rat, plasma; for bioavailability: iv dose 1 mg/kg, oral dose generally 5 or 10 mg/kg; for Vd: read-out: Vss.
A further data set has as its target PI3K (p110α/p85α) (h) (Homo sapiens (Human), UniProt P42336). Kind of data set: PI3K (p110α/p85α) (h) non-radioactive HTRF kinase assay. It is filed as biochemical. For orientation: In TR-FRET formats the signal depends on donor and acceptor labels being close together.
A further data set concerns the target PI3K (p110β/p85α) (h) (Homo sapiens (Human), UniProt P42338). Kind of data set: PI3K (p110β/p85α) (h) non-radioactive HTRF kinase assay. It is filed as biochemical.
A further data set concerns the target PI3K (p110δ/p85α) (h) (Homo sapiens (Human), UniProt O00329). Kind of data set: PI3K (p110δ/p85α) (h) non-radioactive HTRF kinase assay. It is filed as biochemical.
A further data set deals with PI3K (p120γ) (h) (Homo sapiens (Human), UniProt P48736). Briefly: PI3K (p120γ) (h) non-radioactive HTRF kinase assay. It is filed as biochemical.
The nature of data set [4]: Pharmacokinetics after intravenous and oral administration in mice. The class given is in vivo. The following applies: Mouse; for CL/F / AUC(0-t) / half-life / Vd: iv dosing, dose 1 mg/kg; for bioavailability / AUC(0-t) / half-life / Vd: plasma; for bioavailability: iv dose 1 mg/kg, oral dose generally 5 or 10 mg/kg; for Vd: read-out: Vss.
A short description of data set [5]: Pharmacokinetics after intravenous and oral administration in dogs. The class given is in vivo. The following applies: Dog; for CL/F / AUC(0-t) / half-life / Vd: iv dosing, dose 1 mg/kg; for bioavailability / AUC(0-t) / half-life / Vd: plasma; for bioavailability: iv dose 1 mg/kg, oral dose generally 10 mg/kg; for Vd: read-out: Vss.
Data set [6] is described as follows: Pharmacokinetics after intravenous and oral administration in monkeys. Particulars: Monkey; for CL/F / AUC(0-t) / half-life / Vd: iv dosing, dose 1 mg/kg; for bioavailability / AUC(0-t) / half-life / Vd: plasma; for bioavailability: iv dose 1 mg/kg, oral dose generally 10 mg/kg; for Vd: read-out: Vss. It is filed as in vivo.

Consider eight compounds from patent US9670194B2 (Calitor Sciences, LLC, priority 2013, dated 2017).

By half-life is commonly meant how long it takes for the measured level to halve. Low values mean rapid decline, high ones slow decline. A word on the CLint scaled: it is the rate of metabolic loss divided by the concentration. A word on the AUC(0-t): it is the area under the concentration-time curve up to a stated or last time point. High values mean more exposure, low ones less exposure. By IC50 is commonly meant the midpoint of a concentration-inhibition curve. Usually CL/F stands for clearance divided by bioavailability, as obtained after extravascular dosing.

Sequence of PI3K (p110α/p85α) (h) (P42336 whole entry): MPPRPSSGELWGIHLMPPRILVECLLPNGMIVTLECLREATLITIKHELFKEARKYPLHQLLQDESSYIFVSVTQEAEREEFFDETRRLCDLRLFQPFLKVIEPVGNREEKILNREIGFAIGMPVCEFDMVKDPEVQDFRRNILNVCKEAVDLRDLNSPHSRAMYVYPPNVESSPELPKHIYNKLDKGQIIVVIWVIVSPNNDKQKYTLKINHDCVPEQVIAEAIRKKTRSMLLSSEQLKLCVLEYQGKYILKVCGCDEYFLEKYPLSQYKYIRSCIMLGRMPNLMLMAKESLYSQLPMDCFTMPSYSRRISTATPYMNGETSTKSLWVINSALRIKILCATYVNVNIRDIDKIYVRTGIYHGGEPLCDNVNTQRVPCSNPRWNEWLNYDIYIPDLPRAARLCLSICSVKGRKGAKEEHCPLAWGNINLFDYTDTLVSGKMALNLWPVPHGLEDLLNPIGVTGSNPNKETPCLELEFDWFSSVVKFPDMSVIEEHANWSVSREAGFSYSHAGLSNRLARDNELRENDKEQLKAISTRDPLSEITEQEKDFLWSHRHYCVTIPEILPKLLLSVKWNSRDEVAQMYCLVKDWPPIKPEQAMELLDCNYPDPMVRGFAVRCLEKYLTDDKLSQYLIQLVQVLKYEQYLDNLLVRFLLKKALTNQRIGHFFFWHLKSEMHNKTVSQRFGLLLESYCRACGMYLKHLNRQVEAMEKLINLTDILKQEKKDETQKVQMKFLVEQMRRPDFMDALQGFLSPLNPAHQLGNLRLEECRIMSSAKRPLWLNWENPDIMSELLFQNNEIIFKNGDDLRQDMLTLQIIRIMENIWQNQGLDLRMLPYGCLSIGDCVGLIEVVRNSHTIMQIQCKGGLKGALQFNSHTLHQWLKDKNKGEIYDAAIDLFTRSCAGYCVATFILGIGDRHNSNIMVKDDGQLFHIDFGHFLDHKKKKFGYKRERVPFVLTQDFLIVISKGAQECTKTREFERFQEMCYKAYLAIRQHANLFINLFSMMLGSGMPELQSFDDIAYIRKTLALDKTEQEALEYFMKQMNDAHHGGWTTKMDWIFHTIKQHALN
Sequence of PI3K (p110α/p85α) (h) (P27986 whole entry partner): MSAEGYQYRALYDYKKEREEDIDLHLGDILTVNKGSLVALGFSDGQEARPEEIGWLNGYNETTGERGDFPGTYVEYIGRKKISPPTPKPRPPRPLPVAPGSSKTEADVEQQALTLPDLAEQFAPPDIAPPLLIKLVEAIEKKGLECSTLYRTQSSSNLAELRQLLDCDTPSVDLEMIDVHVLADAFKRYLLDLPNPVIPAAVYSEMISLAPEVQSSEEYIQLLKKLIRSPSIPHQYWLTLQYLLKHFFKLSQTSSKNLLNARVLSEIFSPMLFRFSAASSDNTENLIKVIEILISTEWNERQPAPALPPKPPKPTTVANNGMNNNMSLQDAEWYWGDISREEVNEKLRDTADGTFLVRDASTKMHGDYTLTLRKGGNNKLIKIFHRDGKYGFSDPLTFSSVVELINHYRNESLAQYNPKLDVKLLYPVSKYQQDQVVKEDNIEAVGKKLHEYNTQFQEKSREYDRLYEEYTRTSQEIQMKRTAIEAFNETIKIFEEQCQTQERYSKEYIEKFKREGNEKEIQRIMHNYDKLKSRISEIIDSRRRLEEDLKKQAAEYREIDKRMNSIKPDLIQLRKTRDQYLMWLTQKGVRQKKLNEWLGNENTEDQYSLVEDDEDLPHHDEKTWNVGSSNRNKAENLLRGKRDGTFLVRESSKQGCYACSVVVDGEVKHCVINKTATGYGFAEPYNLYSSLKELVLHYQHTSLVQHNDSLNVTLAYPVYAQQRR
Sequence of PI3K (p120γ) (h) (P48736 whole entry): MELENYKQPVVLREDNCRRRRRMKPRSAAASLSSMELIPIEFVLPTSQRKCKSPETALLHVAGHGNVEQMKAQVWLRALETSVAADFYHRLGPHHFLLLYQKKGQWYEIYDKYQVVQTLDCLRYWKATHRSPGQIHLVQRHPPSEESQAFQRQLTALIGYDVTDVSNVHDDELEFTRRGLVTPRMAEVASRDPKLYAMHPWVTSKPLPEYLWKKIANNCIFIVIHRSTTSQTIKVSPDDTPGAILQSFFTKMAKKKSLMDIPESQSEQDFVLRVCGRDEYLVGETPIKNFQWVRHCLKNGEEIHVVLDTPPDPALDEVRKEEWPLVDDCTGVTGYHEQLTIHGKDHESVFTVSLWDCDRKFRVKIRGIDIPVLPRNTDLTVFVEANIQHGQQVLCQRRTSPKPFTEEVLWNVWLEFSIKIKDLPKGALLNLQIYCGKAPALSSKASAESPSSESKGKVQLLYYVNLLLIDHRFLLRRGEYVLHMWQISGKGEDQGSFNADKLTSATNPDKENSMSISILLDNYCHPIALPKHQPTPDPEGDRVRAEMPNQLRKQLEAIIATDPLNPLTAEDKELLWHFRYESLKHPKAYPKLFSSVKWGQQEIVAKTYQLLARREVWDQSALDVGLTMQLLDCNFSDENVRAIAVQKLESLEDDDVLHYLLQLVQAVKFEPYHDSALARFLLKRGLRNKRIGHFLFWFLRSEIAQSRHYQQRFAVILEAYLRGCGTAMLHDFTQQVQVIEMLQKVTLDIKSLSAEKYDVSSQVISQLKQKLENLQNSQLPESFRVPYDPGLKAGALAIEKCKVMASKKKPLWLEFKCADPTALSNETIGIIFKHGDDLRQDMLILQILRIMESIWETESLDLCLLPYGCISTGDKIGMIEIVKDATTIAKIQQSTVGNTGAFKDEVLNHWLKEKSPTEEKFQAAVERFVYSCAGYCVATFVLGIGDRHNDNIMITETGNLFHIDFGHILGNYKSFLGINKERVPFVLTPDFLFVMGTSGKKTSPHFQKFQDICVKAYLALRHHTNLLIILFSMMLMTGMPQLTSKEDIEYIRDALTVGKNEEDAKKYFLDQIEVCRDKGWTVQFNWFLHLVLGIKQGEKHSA
Sequence of PI3K (p110δ/p85α) (h) (O00329 whole entry): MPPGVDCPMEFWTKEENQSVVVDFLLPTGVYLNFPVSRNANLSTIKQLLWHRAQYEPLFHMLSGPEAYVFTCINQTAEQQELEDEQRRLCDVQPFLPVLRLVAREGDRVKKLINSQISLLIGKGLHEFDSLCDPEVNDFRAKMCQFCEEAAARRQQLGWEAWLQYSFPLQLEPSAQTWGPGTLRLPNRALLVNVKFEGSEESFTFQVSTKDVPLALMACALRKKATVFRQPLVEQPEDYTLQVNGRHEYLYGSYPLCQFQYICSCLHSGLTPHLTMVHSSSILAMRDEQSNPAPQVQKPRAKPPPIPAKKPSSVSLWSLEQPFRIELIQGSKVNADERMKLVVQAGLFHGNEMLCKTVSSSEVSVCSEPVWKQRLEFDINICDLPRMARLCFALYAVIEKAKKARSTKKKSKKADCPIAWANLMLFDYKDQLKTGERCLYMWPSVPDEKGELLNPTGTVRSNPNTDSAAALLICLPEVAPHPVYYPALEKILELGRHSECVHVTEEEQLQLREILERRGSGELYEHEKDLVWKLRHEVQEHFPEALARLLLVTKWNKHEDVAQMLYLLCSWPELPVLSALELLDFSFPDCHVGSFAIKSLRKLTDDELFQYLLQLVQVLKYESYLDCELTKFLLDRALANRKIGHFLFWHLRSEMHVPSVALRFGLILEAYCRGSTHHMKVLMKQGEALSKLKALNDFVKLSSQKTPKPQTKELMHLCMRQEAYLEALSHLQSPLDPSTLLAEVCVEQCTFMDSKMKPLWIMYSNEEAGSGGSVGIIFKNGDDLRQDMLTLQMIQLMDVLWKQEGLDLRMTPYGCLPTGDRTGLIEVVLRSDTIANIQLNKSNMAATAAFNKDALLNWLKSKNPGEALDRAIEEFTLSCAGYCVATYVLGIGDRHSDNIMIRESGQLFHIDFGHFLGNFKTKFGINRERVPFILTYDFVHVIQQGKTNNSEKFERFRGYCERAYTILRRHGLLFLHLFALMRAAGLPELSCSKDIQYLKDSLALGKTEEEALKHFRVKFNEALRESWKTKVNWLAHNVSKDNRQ
Sequence of PI3K (p110δ/p85α) (h) (P27986 whole entry partner): as the sequence (P27986 whole entry partner) above
Sequence of PI3K (p110β/p85α) (h) (P42338 whole entry): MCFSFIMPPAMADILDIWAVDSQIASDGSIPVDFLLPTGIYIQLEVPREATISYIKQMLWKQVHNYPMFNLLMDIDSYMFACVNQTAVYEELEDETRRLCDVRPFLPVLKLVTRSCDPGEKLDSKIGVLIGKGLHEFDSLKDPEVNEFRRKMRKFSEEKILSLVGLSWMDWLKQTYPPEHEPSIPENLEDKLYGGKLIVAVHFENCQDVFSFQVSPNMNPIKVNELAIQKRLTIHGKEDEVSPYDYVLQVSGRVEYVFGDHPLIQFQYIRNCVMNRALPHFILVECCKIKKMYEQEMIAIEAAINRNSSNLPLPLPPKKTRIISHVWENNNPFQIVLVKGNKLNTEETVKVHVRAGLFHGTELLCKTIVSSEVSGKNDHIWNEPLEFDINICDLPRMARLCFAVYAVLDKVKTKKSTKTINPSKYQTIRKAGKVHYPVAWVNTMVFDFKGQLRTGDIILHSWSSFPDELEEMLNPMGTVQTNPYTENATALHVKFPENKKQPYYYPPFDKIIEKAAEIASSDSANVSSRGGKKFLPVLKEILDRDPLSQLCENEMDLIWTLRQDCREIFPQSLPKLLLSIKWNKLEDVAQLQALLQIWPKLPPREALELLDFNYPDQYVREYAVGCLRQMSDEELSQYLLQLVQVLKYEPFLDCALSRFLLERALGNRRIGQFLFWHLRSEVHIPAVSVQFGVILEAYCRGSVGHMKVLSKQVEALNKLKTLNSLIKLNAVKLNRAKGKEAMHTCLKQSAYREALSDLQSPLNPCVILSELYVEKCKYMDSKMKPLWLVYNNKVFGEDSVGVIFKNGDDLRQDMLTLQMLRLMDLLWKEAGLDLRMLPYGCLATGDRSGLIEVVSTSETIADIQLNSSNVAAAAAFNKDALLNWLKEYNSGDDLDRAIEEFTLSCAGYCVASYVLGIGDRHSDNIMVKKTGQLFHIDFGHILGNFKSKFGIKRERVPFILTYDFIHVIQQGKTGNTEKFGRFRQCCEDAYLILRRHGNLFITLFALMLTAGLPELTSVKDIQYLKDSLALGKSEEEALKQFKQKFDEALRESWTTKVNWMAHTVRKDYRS
Sequence of PI3K (p110β/p85α) (h) (P27986 whole entry partner): as the sequence (P27986 whole entry partner) above

For the compound `CC[C@H](Nc1ncnc(N)c1-c1nc(C)no1)c1nc2cccc(Cl)c2c(=O)n1-c1ccccc1` [Ex. 3, (S)-2-(1-((6-amino-5-(3-methyl-1,2,4-oxadiazol-5-yl)pyrimidin-4-yl)amino)-propyl)5-chloro-3-phenylquinazolin-4(3H)-one], in [1], the half-life at 5 μM was found to be 36.7 min and the CLint scaled at 5 μM was 2.85 L/h/kg. In addition, in data set [2], the half-life at 5 μM was 31 min and the CLint scaled at 5 μM was 4.81 L/h/kg. Also, in [3], the “clearance (CL)” value is 4.25 L/h/kg, the bioavailability worked out at 64.5%, the AUC(0-t) is 0.237 µg·h/mL and the half-life was 71.4 min. In addition, in data set [3], the Vd was determined as 6.23 L/kg. Moreover, the IC50 at PI3K (p110α/p85α) (h) came out at 0.442 µM. Further, the IC50 on PI3K (p110β/p85α) (h) worked out at 0.142 µM. The IC50 at PI3K (p110δ/p85α) (h) was 0.002 µM. Further, the IC50 on PI3K (p120γ) (h) stood at 0.066 µM.
In the case of `Cc1noc(-c2c(N)ncnc2N[C@@H](C)c2nc3cccc(F)c3c(=O)n2-c2ccccc2)n1` [Ex. 63, (S)-2-(1-((6-amino-5-(3-methyl-1,2,4-oxadiazol-5-yl)pyrimidin-4-yl)amino)ethyl)-5-fluoro-3-phenylquinazolin-4(3H)-one], the half-life at 5 μM in [1] amounted to 47.9 min; in data set [2], 17.9 min. The figures for the CLint scaled at 5 μM in data set [1] and in data set [2] were 2.18 L/h/kg and 8.32 L/h/kg, respectively. Besides, the IC50 at PI3K (p110α/p85α) (h) is over 3 µM; on PI3K (p110β/p85α) (h) it was 1.32 µM; on PI3K (p110δ/p85α) (h), 0.018 µM; at PI3K (p120γ) (h), 0.269 µM.
Regarding `Cc1noc(-c2c(N)ncnc2N[C@@H](C)c2nc3cccc(Cl)c3c(=O)n2C2CC2)n1` [Ex. 41, (S)-2-(1-((6-amino-5-(3-methyl-1,2,4-oxadiazol-5-yl)pyrimidin-4-yl)amino)-ethyl)-5-chloro-3-cyclopropylquinazolin-4(3H)-one], in [1], the half-life at 5 μM stood at 41 min and the CLint scaled at 5 μM is 2.54 L/h/kg. Also, in data set [2], the half-life at 5 μM was determined as 22.4 min and the CLint scaled at 5 μM is 6.66 L/h/kg. In [3], the “clearance (CL)” value is 5.06 L/h/kg, the bioavailability is 46.5%, the AUC(0-t) stood at 0.2 µg·h/mL and the half-life was 65.4 min. Also, the Vd in [3] is 6.68 L/kg. For the same compound, at PI3K (p110α/p85α) (h), the IC50 came to 1.2 µM. The IC50 on PI3K (p110β/p85α) (h) stood at 0.035 µM. In addition, the IC50 on PI3K (p110δ/p85α) (h) is 0.005 µM. Further, at PI3K (p120γ) (h), the IC50 came to 0.261 µM.
As for `Cc1nnc(-c2c(N)ncnc2N[C@@H](C)c2nc3cccc(Cl)c3c(=O)n2-c2ccccc2)o1` [Ex. 64, (S)-2-(1-((6-amino-5-(5-methyl-1,3,4-oxadiazol-2-yl)pyrimidin-4-yl)amino)ethyl)-5-chloro-3-phenylquinazolin-4(3H)-one], the half-life at 5 μM came to 55.8 min in data set [1] and 49.6 min in data set [2]. For the same compound, the CLint scaled at 5 μM in [1] is 1.87 L/h/kg; in data set [2] it was 3 L/h/kg. Also, the “clearance (CL)” value in data set [3] is on record as 1.70 L/h/kg. The bioavailability was 111% in data set [3], 78.7% in data set [4], 76.3% in data set [5] and 134% in data set [6]. The AUC(0-t) in data set [3] stood at 0.596 µg·h/mL; in data set [4], 0.883 µg·h/mL; in data set [5], 10 µg·h/mL; in [6], 2.34 µg·h/mL. In addition, the half-life was 46.6 min in [3], 33.6 min in data set [4], 218 min in data set [5] and 209 min in data set [6]. For the same compound, the Vd was determined as 1.69 L/kg in [3], 0.41 L/kg in [4], 0.48 L/kg in [5] and 1.4 L/kg in data set [6]. Moreover, the results for the CL/F in data set [4], in data set [5] and in data set [6] were 1.13 L/h/kg, 0.11 L/h/kg and 0.43 L/h/kg, respectively. Moreover, the IC50 was over 3 µM on PI3K (p110α/p85α) (h), 0.674 µM at PI3K (p110β/p85α) (h), 0.008 µM at PI3K (p110δ/p85α) (h) and 0.112 µM at PI3K (p120γ) (h).
As for `CC[C@H](Nc1ncnc(N)c1-c1nnc(C)o1)c1nc2cccc(Cl)c2c(=O)n1-c1cccc(F)c1` [Ex. 34, (S)-2-(1-((6-amino-5-(5-methyl-1,3,4-oxadiazol-2-yl)pyrimidin-4-yl)amino)-propyl)-5-chloro-3-(3-fluorophenyl)quinazolin-4(3H)-one], the half-life at 5 μM in data set [1] was determined as 29.8 min; in data set [2], 8.94 min. The CLint scaled at 5 μM in data set [1] is 3.5 L/h/kg; in data set [2] it was 16.7 L/h/kg. Moreover, the IC50 was over 3 µM at PI3K (p110α/p85α) (h), 1.36 µM on PI3K (p110β/p85α) (h), 0.012 µM on PI3K (p110δ/p85α) (h) and over 3 µM on PI3K (p120γ) (h).
As for `CC[C@H](Nc1ncnc(N)c1-c1nnc(C)o1)c1nc2cccc(Cl)c2c(=O)n1C1CC1` [Ex. 2, (S)-2-(1-((6-amino-5-(5-methyl-1,3,4-oxadiazol-2-yl)pyrimidin-4-yl)amino)-propyl)-5-chloro-3-cyclopropylquinazolin-4(3H)-one], in data set [1], the half-life at 5 μM was 32.1 min and the CLint scaled at 5 μM was 3.24 L/h/kg. In addition, in data set [2], the half-life at 5 μM is 31.4 min and the CLint scaled at 5 μM was 4.75 L/h/kg. For the same compound, in data set [3], the “clearance (CL)” value was found to be 2.47 L/h/kg, the bioavailability was 63.9%, the AUC(0-t) is 0.405 µg·h/mL and the half-life was 75.6 min. Moreover, the Vd in data set [3] stood at 3.93 L/kg. Further, the IC50 on PI3K (p110α/p85α) (h) is over 3 µM. In addition, the IC50 on PI3K (p110β/p85α) (h) worked out at 0.168 µM. Besides, the IC50 at PI3K (p110δ/p85α) (h) turned out to be 0.033 µM. The 50% inhibitory concentration (IC50) at PI3K (p120γ) (h) is 1.93 µM.
Take `CC[C@H](Nc1ncnc(N)c1-c1nc(C)no1)c1nc2cccc(F)c2c(=O)n1-c1ccccc1` [Ex. 39, (S)-2-(1-((6-amino-5-(3-methyl-1,2,4-oxadiazol-5-yl)pyrimidin-4-yl)amino)-propyl)-5-fluoro-3-phenylquinazolin-4(3H)-one]: in [1], the half-life at 5 μM amounted to 69.3 min and the intrinsic clearance (CLint scaled) at 5 μM is 1.5 L/h/kg. In addition, in data set [2], the half-life at 5 μM turned out to be 15.6 min and the CLint scaled at 5 μM was 9.55 L/h/kg. In [3], the “clearance (CL)” value worked out at 3.11 L/h/kg, the bioavailability stood at 75.5%, the AUC(0-t) stood at 0.323 µg·h/mL and the half-life was 57 min. For the same compound, in [3], the Vd worked out at 4.09 L/kg. Besides, the IC50 at PI3K (p110α/p85α) (h) amounted to 2.75 µM. On PI3K (p110β/p85α) (h), the IC50 was 0.502 µM. Moreover, the IC50 at PI3K (p110δ/p85α) (h) stood at 0.011 µM. Further, at PI3K (p120γ) (h), the 50% inhibitory concentration (IC50) came out at 0.893 µM.
Consider `CC[C@H](Nc1ncnc(N)c1-c1nc(C)no1)c1nc2cccc(Cl)c2c(=O)n1C1CC1` [Ex. 4, (S)-2-(1-((6-amino-5-(3-methyl-1,2,4-oxadiazol-5-yl)pyrimidin-4-yl)amino)-propyl)-5-chloro-3-cyclopropylquinazolin-4(3H)-one], for which the half-life at 5 μM in data set [1] amounted to 45.5 min; in data set [2], 81.1 min. The results for the CLint scaled at 5 μM in data set [1] and in [2] were 2.29 L/h/kg and 1.84 L/h/kg, respectively. The “clearance (CL)” value in [3] came to 1.29 L/h/kg. Further, the bioavailability in [3] was determined as 76.1%; in data set [4], 11%; in [5], 34.1%; in data set [6] it was 55.4%. Moreover, the AUC(0-t) in data set [3] was 0.726 µg·h/mL; in data set [4], 0.651 µg·h/mL; in data set [5], 1.58 µg·h/mL; in data set [6], 1.52 µg·h/mL. In addition, the half-life in data set [3] was 359 min; in [4] it was 88.8 min; in [5] it was 684 min; in data set [6], 185 min. In addition, the Vd was 10.7 L/kg in data set [3], 3.8 L/kg in data set [4], 6.01 L/kg in [5] and 1.92 L/kg in data set [6]. Moreover, the CL/F in data set [4] came out at 15.3 L/h/kg; in data set [5], 0.58 L/h/kg; in data set [6], 0.696 L/h/kg. Moreover, the IC50 at PI3K (p110α/p85α) (h) stood at 1.48 µM; on PI3K (p110β/p85α) (h) it was 0.113 µM; on PI3K (p110δ/p85α) (h), 0.008 µM; on PI3K (p120γ) (h), 0.258 µM.
